How the values were obtained:
Leishmania donovani [1] = test: Antileishmanial activity against Leishmania donovani amastigotes infected in J774.A1 macrophage assessed as inhibition of parasite growth by luciferase assay; format: functional, organism-based
[2] = Cytotoxicity against African green monkey Vero cells assessed as reduction in cell viability by MTT assay; format: toxicity, cell-based; settings: chlorocebus sabaeus
[3] = Selectivity index, ratio of CC50 for cytotoxicity against mouse J774.A1 cells to IC50 for antileishmanial activity against Leishmania donovani amastigotes infected in J774.A1 macrophage; format: toxicity, cell-based; settings: read-out: Ratio CC50/IC50
[4] = Selectivity index, ratio of CC50 for cytotoxicity against African green monkey Vero cells to IC50 for antileishmanial activity against Leishmania donovani amastigotes infected in J774.A1 macrophage; format: toxicity, cell-based; settings: read-out: Ratio CC50/IC50
[5] = Cytotoxicity against mouse J774A.1 cells assessed as reduction in cell viability by MTT assay; format: toxicity, cell-based, J774.A1
Leishmania donovani [6] = test: Antileishmanial activity against Leishmania donovani amastigotes infected in golden hamster model assessed as inhibition of splenic parasite burden at 50 mg/kg,ip for 5 consecutive days measured after 28 days of post treatment; format: functional; settings: for inhibition in vivo at 50 mg/kg: 672 h, time 28 day
Leishmania donovani [7] = test: Antileishmanial activity against Leishmania donovani amastigotes infected in golden hamster model assessed as inhibition of splenic parasite burden at 50 mg/kg,ip for 5 consecutive days measured after 7 days of post treatment; format: functional; settings: for inhibition in vivo at 50 mg/kg: 168 h, time 7 day
[8] = Leishmania donovani, J774.A1, read-out: IC50

Compound	IC50 (Leishmania donovani [1])	CC50 [2] [µM]	selectivity ratio [3]	selectivity ratio [4]	IC50 (Leishmania donovani [1]; [8]) [µM]	CC50 [5] [µM]	inhibition in vivo at 50 mg/kg (Leishmania donovani [6]) [%]	inhibition in vivo at 50 mg/kg (Leishmania donovani [7]) [%]	inhibition (Leishmania donovani [6]; time 28.0 day) [%]	inhibition (Leishmania donovani [7]; time 7.0 day) [%]
O=C(Nc1ccc(Cl)c(C(F)(F)F)c1)c1ccccc1O	Not Active									
O=C(Nc1cc(Cl)cc(Cl)c1O)c1c(O)c(Cl)cc(Cl)c1Cl [OXYCLOZANIDE]		156	5.49	31.2	7.71	42.4				
O=C(Nc1ccc(F)cc1)c1ccccc1O	Not Active									
O=C(Nc1ccc(Br)c(C(F)(F)F)c1)c1cc(Cl)ccc1O		2.54	13.3	0.72	3.5	46.6				
O=C(Nc1ccc([N+](=O)[O-])cc1Cl)c1cc(Cl)ccc1O [NICLOSAMIDE]		3.06	11.4	0.61	3.68	42.1				
O=C(Nc1ccccc1)c1ccccc1 [N-PHENYLBENZAMIDE]	Not Active									
O=C(Nc1ccccc1)c1cc(Cl)ccc1O	Not Active									
O=C(Nc1cc(Cl)cc(Cl)c1)c1cc(Cl)ccc1O		6.49	10.1	1.69	3.83	38.8				
O=C(Nc1ccc(F)cc1[N+](=O)[O-])c1cc(Cl)ccc1O		21.9	12.8	5.65	3.88	49.6				
O=C(Nc1ccccc1F)c1ccccc1O	Not Active									
O=C(Nc1ccc([N+](=O)[O-])cc1Cl)c1ccccc1O		7.29	12.9	2.23	3.27	42.1				
O=C(Nc1ccc(F)c(Cl)c1)c1cc(Cl)ccc1O		14.5	18.1	5.02	2.89	52.4	16.5	25.1		
O=C(Nc1ccc([N+](=O)[O-])cc1F)c1ccccc1O		11.7	10.5	2.89	4.06	42.8				
O=C(Nc1ccc(Br)cc1)c1cc(Cl)ccc1O		10.1	13.3	2.64	3.83	50.8				
O=C(Nc1ccc(F)cc1[N+](=O)[O-])c1ccccc1O		65.2	5.5	8.73	7.47	41.1				
O=C(Nc1cccc(C(F)(F)F)c1)c1cc(Cl)ccc1O		3.17			3.47					
O=C(Nc1ccc(F)c(Cl)c1)c1ccccc1O	Not Active									

Compound	IC50 (Leishmania donovani [1])	CC50 [2] [µM]	selectivity ratio [3]	selectivity ratio [4]	IC50 (Leishmania donovani [1]; [8]) [µM]	CC50 [5] [µM]	inhibition in vivo at 50 mg/kg (Leishmania donovani [6]) [%]	inhibition in vivo at 50 mg/kg (Leishmania donovani [7]) [%]	inhibition (Leishmania donovani [6]; time 28.0 day) [%]	inhibition (Leishmania donovani [7]; time 7.0 day) [%]
O=C(Nc1ccc(F)c(F)c1)c1cc(Cl)ccc1O		10.6	14.5	2.99	3.54	51.2				
O=C(Nc1ccccc1Cl)c1cc(Cl)ccc1O		13.2	17.7	5.02	2.62	46.5				
CCCCCCCCCCCCCCCCOP(=O)([O-])OCC[N+](C)(C)C [MILTEFOSINE]		51.8	5.76	5.6	9.25	53.3				
O=C(Nc1ccc(Cl)cc1)c1cc(Cl)ccc1O		16.3	18.7	7.8	2.09	39	65.2	63.1		
O=C(Nc1ccc(Cl)c(C(F)(F)F)c1)c1cc(Cl)ccc1O		4.31	13.1	1.08	4	52.4				
O=C(Nc1ccc([N+](=O)[O-])cc1F)c1cc(Cl)ccc1O		3.23	10.8	0.81	3.98	43.1				
O=C(Nc1ccccc1)c1ccccc1O [SALICYLANILIDE]	Not Active									
O=C(Nc1ccc(F)cc1)c1cc(Cl)ccc1O	Not Active									
O=C(Nc1ccccc1F)c1cc(Cl)ccc1O		12.1	11.1	3.06	3.95	44				
O=C(Nc1ccccc1)c1cccc(Cl)c1	Not Active									
O=C(Nc1ccc(F)c(F)c1)c1ccccc1O		45.4	5.96	6.17	7.36	43.9				
O=C(Nc1cc(Cl)cc(Cl)c1)c1ccccc1O		7.09	5.3	0.89	7.97	42.2				
Sodium stibogluconate									85.4	81.4
O=C(Nc1ccc(Br)c(C(F)(F)F)c1)c1ccccc1O		4.33	11.6	1.13	3.82	44.2				
O=C(Nc1ccc([N+](=O)[O-])cc1Cl)c1cccc(Cl)c1	Not Active									
O=C(Nc1ccc([N+](=O)[O-])cc1Cl)c1ccccc1	Not Active									
O=C(Nc1cccc(Cl)c1)c1cc(Cl)ccc1O		13.9	10.9	3	4.62	50.5				
